These compounds were tested against T1, Recombinant human HSD17B13 enzyme (Homo sapiens, UniProt Q7Z5P4) (assay: HSD17b13 NAD(P)H-Glo biochemical assay). Conditions: 50 uM estradiol, 1 mM NAD+, NAD(P)H-Glo luminescence; read-out: HSD17β13 IC50.
T1 sequence (Q7Z5P4 20-300): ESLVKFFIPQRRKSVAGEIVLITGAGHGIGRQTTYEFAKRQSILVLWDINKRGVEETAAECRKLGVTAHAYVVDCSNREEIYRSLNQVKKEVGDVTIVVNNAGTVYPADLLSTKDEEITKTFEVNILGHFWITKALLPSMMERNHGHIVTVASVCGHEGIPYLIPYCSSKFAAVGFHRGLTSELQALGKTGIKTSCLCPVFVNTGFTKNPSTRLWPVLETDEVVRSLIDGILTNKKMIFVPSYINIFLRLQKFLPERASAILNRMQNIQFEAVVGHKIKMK
Outline: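 Luminescent NAD(P)H-Glo read-out, taken after 1 hour at RT, measured cofactor reduction. Substrate and cofactor were estradiol at 50 uM and NAD+ at 1 mM final, reacted with the recombinant human enzyme for 3 hours at 37° C in 20 mM Tris pH7.4, 0.002% Tween-20, 0.02% BSA. Compound was pre-incubated with enzyme for 20 minutes at RT.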

Row | IC50 [nM] | SMILES
1 | < 100 | Cn1nc(-c2cc(C(F)(F)F)c(F)c(O)c2F)c2cnc(N3CCOC(c4nccs4)C3)nc21 (stereo not shown) [Compound 18.80, 2,6-Difluoro-3-(1-methyl-6-(2-(thiazol-2-yl)morpholino)-1H-pyrazolo[3,4-d]pyrimidin-3-y1)-5-(trifluoromethyl)phenol]
2 | < 100 | Cn1nc(-c2cc(C(F)(F)F)c(F)c(O)c2F)c2cnc(N3CCO[C@@H](c4ccccc4)C3)nc21 [Compound 18.86, (S)-2,6-Difluoro-3-(1-methyl-6-(2-phenylmorpholino)-1H-pyrazolo[3,4-d]pyrimidin-3-y1)-5-(trifluoromethyl)phenol]
3 | < 100 | CN1CCN(c2ncc3c(-c4cc(C(F)(F)F)c(F)c(O)c4F)nn(C)c3n2)CC12CC2 [Compound 18.17, 2,6-Difluoro-3-(1-methyl-6-(4-methyl-4,7-diazaspiro[2.5]octan-7-y1)-1H-pyrazolo[3,4-d]pyrimidin-3-y1)-5-(trifluoromethyl)phenol]
4 | < 100 | Cn1nc(-c2cc(C(F)(F)F)c(F)c(O)c2F)c2cnc(N3CC4CCC(C3)N4S(C)(=O)=O)nc21 [Compound 18.111, 2,6-Difluoro-3-(1-methyl-6-(8-(methylsulfony1)-3,8-diazabicyclo[3.2.1]octan-3-yl)-1H-pyrazolo[3,4-d]pyrimidin-3-y1)-5-(trifluoromethyl)phenol]
5 | 100 to 1000 | Cn1nc(-c2cc(C(F)(F)F)c(F)c(O)c2F)c2cnc(N3CCN(C(=O)c4ccncc4)CC3)nc21 [Compound 18.122, (4-(3-(2,4-Difluoro-3-hydroxy-5-(trifluoromethyl)phenyl)-1-methyl-1H-pyrazolo[3,4-d]pyrimidin-6-y1)piperazin-1-yl)(pyridin-4-yl)methanone]
6 | 100 to 1000 | Cn1nc(-c2ccc(Cl)c(O)c2F)c2cnc(N3CCN(S(C)(=O)=O)C4(CC4)C3)nc21 [Compound 12.06, 6-Chloro-2-fluoro-3-(1-methyl-6-(4-(methylsulfonyl)-4,7-diazaspiro[2.5]octan-7-yl)-1H-pyrazolo[3,4-d]pyrimidin-3-yl)phenol]
7 | 1000 to 30000 | Cn1nc(-c2cc(C(F)(F)F)c(F)c(O)c2F)c2cnc(N3CCOC(C(=O)O)C3)nc21 (stereo not shown) [Compound 18.43, 4-(3-(2,4-Difluoro-3-hydroxy-5-(trifluoromethyl)phenyl)-1-methyl-1H-pyrazolo[3,4-d]pyrimidin-6-yl)morpholine-2-carboxylic Acid]
8 | < 100 | Cn1nc(-c2cc(C(F)(F)F)c(F)c(O)c2F)c2cnc(N3CCOCC3(C)C)nc21 [Compound 18.102, 3-(6-(3,3-Dimethylmorpholino)-1-methyl-1H-pyrazolo[3,4-d]pyrimidin-3-y1)-2,6-difluoro-5-(trifluoromethyl)phenol]
9 | < 100 | CN1CC2(CCN(c3ncc4c(-c5cc(C(F)(F)F)c(F)c(O)c5F)nn(C)c4n3)CC2)OC1=O [Compound 18.89, 8-(3-(2,4-Difluoro-3-hydroxy-5-(trifluoromethyl)phenyl)-1-methyl-1H-pyrazolo[3,4-d]pyrimidin-6-yl)-3-methyl-1-oxa-3,8-diazaspiro[4.5]decan-2-one]
10 | < 100 | Cn1nc(-c2cc(C(F)(F)F)c(F)c(O)c2F)c2cnc(N3CCC4(CCC(=O)N4)CC3)nc21 [Compound 18.15, 8-(3-(2,4-Difluoro-3-hydroxy-5-(trifluoromethyl)phenyl)-1-methyl-1H-pyrazolo[3,4-d]pyrimidin-6-yl)-1,8-diazaspiro[4.5]decan-2-one]
11 | 100 to 1000 | Cn1nc(-c2cc(C(F)(F)F)c(F)c(O)c2F)c2cnc(N3CCOC(c4nnc[nH]4)C3)nc21 (stereo not shown) [Compound 18.78, 3-(6-(2-(4H-1,2,4-Triazol-3-yl)morpholino)-1-methyl-1H-pyrazolo[3,4-d]pyrimidin-3-y1)-2,6-difluoro-5-(trifluoromethyl)phenol]
12 | 100 to 1000 | Cn1nc(-c2cc(C(F)(F)F)c(F)c(O)c2F)c2cnc(N3[C@@H]4CNC[C@H]3COC4)nc21 [Compound 18.11, 3-(6-((1R,5S)-3-oxa-7,9-diazabicyclo[3.3.1]nonan-9-y1)-1-methyl-1H-pyrazolo[3,4-d]pyrimidin-3-y1)-2,6-difluoro-5-(trifluoromethyl)phenol]
13 | < 100 | COCC1COCCN1c1ncc2c(-c3cc(C(F)(F)F)c(F)c(O)c3F)nn(C)c2n1 (stereo not shown) [Compound 18.03, 2,6-Difluoro-3-(6-(3-(methoxymethyl)morpholino)-1-methyl-1H-pyrazolo[3,4-d]pyrimidin-3-y1)-5-(trifluoromethyl)phenol]
14 | < 100 | CC(=O)N1CCN(c2ncc3c(-c4cc(C(F)(F)F)c(F)c(O)c4F)nn(C)c3n2)C2(CC2)C1 [Compound 18.129, 1-(4-(3-(2,4-Difluoro-3-hydroxy-5-(trifluoromethyl)phenyl)-1-methyl-1H-pyrazolo[3,4-d]pyrimidin-6-yl)-4,7-diazaspiro[2.5]octan-7-yl)ethan-1-one]
15 | < 100 | Cn1nc(-c2cc(C(F)(F)F)c(F)c(O)c2F)c2cnc(N3CCN(S(C)(=O)=O)C4(CCCC4)C3)nc21 [Compound 18.83, 2,6-Difluoro-3-(1-methyl-6-(6-(methylsulfonyl)-6,9-diazaspiro[4.5]decan-9-yl)-1H-pyrazolo[3,4-d]pyrimidin-3-y1)-5-(trifluoromethyl)phenol]

More lines, now with the values behind:

Row | SMILES | IC50 [nM]
16 | Cn1nc(-c2cc(C(F)(F)F)c(F)c(O)c2F)c2cnc(N3CCOC4(CCC4)C3)cc21 [Compound 9.78, 2,6-Difluoro-3-(1-methyl-6-(5-oxa-8-azaspiro[3.5]nonan-8-yl)-1H-pyrazolo[4,3-c]pyridin-3-yl)-5-(trifluoromethyl)phenol] | < 100
17 | COCC1(N(C)c2cc3c(cn2)c(-c2cc(C(F)(F)F)c(F)c(O)c2F)nn3C)CCC1 [Compound 9.21, 2,6-Difluoro-3-(6-((1-(methoxymethyl)cyclobutyl)(methyl)amino)-1-methyl-1H-pyrazolo[4,3-c]pyridin-3-yl)-5-(trifluoromethyl)phenol] | < 100
18 | CN(c1cc(Cl)c2c(-c3cc(C(F)(F)F)c(F)c(O)c3F)nn(C)c2c1)C1CCOCC1 [Compound 9.127, 3-(4-Chloro-1-methyl-6-(methyl(tetrahydro-2H-pyran-4-yl)amino)-1H-indazol-3-yl)-2,6-difluoro-5-(trifluoromethyl)phenol] | 100 to 1000
19 | Cn1nc(-c2cc(C(F)(F)F)c(F)c(O)c2F)c2ccc(N3CCOCC34CCC4)nc21 [Compound 9.41, 2,6-Difluoro-3-(1-methyl-6-(8-oxa-5-azaspiro[3.5]nonan-5-yl)-1H-pyrazolo[3,4-b]pyridin-3-yl)-5-(trifluoromethyl)phenol] | < 100
20 | Cn1nc(-c2cc(C(F)(F)F)c(F)c(O)c2F)c2cnc(N3CCOC4(CCCC4)C3)cc21 [Compound 9.132, 2,6-Difluoro-3-(1-methyl-6-(6-oxa-9-azaspiro[4.5]decan-9-yl)-1H-pyrazolo[4,3-c]pyridin-3-yl)-5-(trifluoromethyl)phenol] | < 100
21 | O=C(NC1CCOCC1)c1ccc2oc(-c3cc(O)c(F)c(F)c3)nc2c1 [Compound 1.07, 2-(3,4-Difluoro-5-hydroxyphenyl)-N-(tetrahydro-2H-pyran-4-yl)benzo[d]oxazole-5-carboxamide] | 100 to 1000
22 | CC(=O)N1CCC(N(C)c2cc3c(cn2)c(-c2cc(C(F)(F)F)c(F)c(O)c2F)nn3C)CC1 [Compound 9.66, 1-(4-((3-(2,4-Difluoro-3-hydroxy-5-(trifluoromethyl)phenyl)-1-methyl-1H-pyrazolo[4,3-c]pyridin-6-yl)(methyl)amino)piperidin-1-yl)ethanone] | < 100
23 | Cn1nc(-c2cc(C(F)(F)F)c(F)c(O)c2F)c2cnc(N3CCS(=O)(=O)CC3(C)C)cc21 [Compound 9.125, 4-(3-(2,4-Difluoro-3-hydroxy-5-(trifluoromethyl)phenyl)-1-methyl-1H-pyrazolo[4,3-c]pyridin-6-yl)-3,3-dimethylthiomorpholine 1,1-dioxide] | 100 to 1000
24 | Cc1cc(-c2n[nH]c3cc(N4CCN(S(C)(=O)=O)CC4)ccc23)c(F)c(O)c1F [Compound 9.25, 2,6-Difluoro-3-methyl-5-(6-(4-(methylsulfonyl)piperazin-1-yl)-1H-indazol-3-yl)phenol] | 100 to 1000
25 | Cn1nc(-c2cc(C(F)(F)F)c(F)c(O)c2F)c2cnc(N3CCCC34CCOCC4)cc21 [Compound 9.99, 2,6-Difluoro-3-(1-methyl-6-(8-oxa-1-azaspiro[4.5]decan-1-yl)-1H-pyrazolo[4,3-c]pyridin-3-yl)-5-(trifluoromethyl)phenol] | < 100
26 | Oc1c(F)c(-c2nn(C3CCOCC3)c3cc(N4CCOCC45CC5)ncc23)cc(C(F)(F)F)c1F [Compound 9.54, 3-(6-(7-Oxa-4-azaspiro[2.5]octan-4-yl)-1-(tetrahydro-2H-pyran-4-yl)-1H-pyrazolo[4,3-c]pyridin-3-yl)-2,6-difluoro-5-(trifluoromethyl)phenol] | < 100
27 | CN(c1cc2c(cn1)c(-c1cc(C(F)(F)F)c(F)c(O)c1F)nn2C)C12CC(C1)C2 [Compound 9.32, 3-(6-(Bicyclo[1.1.1]pentan-1-yl(methyl)amino)-1-methyl-1H-pyrazolo[4,3-c]pyridin-3-yl)-2,6-difluoro-5-(trifluoromethyl)phenol] | < 100
28 | CS(=O)(=O)N1CCN(C(=O)c2ccc3oc(-c4cc(O)c(F)c(F)c4)nc3c2)CC1 [Compound 1.04, (2-(3,4-Difluoro-5-hydroxyphenyl)benzo[d]oxazol-5-yl)(4-(methylsulfonyl)piperazin-1-yl)methanone] | 1000 to 30000

Reference: US20240083861A1, “HSD17B13 INHIBITORS AND USES THEREOF” (FL2022-001, Inc., priority 2020, published 2024)
